Measurements taken from PubChem BioAssay (NCI).
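Values below derive from 48-hour exposures of cells grown in 96-well plates, with endpoints linearly interpolated between the two concentrations bracketing the appropriate inhibition level. GI50: concentration for 50% inhibition of growth. Definition used: TGI = concentration required for complete inhibition of growth.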

How the values were obtained:
Assay in all cases: growth of human tumour cells (NCI), 48 h; in the data active = GI50 below about 0.43 µM; inactive = the rest
DU-145 prostate = test system: DU-145 prostate
NCI-H460 lung = test system: NCI-H460 lung
HL-60(TB) leukemia = test system: HL-60(TB) leukemia
UACC-62 melanoma = test system: UACC-62 melanoma
K-562 leukemia = test system: K-562 leukemia
T-47D breast = test system: T-47D breast
SNB-75 CNS = test system: SNB-75 CNS
A498 renal = test system: A498 renal
TK-10 renal = test system: TK-10 renal
CAKI-1 renal = test system: CAKI-1 renal
SN12C renal = test system: SN12C renal
UO-31 renal = test system: UO-31 renal
OVCAR-3 ovarian = test system: OVCAR-3 ovarian
UACC-257 melanoma = test system: UACC-257 melanoma
NCI-H23 lung = test system: NCI-H23 lung
MOLT-4 leukemia = test system: MOLT-4 leukemia
SNB-19 CNS = test system: SNB-19 CNS
A549 NSCLC = test system: A549 NSCLC
M14 melanoma = test system: M14 melanoma
HOP-62 NSCLC = test system: HOP-62 NSCLC
OVCAR-8 ovarian = test system: OVCAR-8 ovarian
BT-549 breast = test system: BT-549 breast
HCC-2998 colon = test system: HCC-2998 colon
ACHN renal = test system: ACHN renal
HCT-15 colon = test system: HCT-15 colon
SF-539 CNS = test system: SF-539 CNS
MALME-3M melanoma = test system: MALME-3M melanoma
HT29 colon = test system: HT29 colon
NCI/ADR-RES ovarian = test system: NCI/ADR-RES ovarian
CCRF-CEM leukemia = test system: CCRF-CEM leukemia
MDA-MB-435 = test system: MDA-MB-435
SK-MEL-2 melanoma = test system: SK-MEL-2 melanoma
NCI-H226 lung = test system: NCI-H226 lung
SK-OV-3 ovarian = test system: SK-OV-3 ovarian
HOP-92 NSCLC = test system: HOP-92 NSCLC
MDA-MB-231 breast = test system: MDA-MB-231 breast
OVCAR-4 ovarian = test system: OVCAR-4 ovarian
786-0 renal = test system: 786-0 renal
HS 578T breast = test system: HS 578T breast
U251 CNS = test system: U251 CNS
LOX IMVI melanoma = test system: LOX IMVI melanoma
COLO 205 colon = test system: COLO 205 colon
MCF7 breast = test system: MCF7 breast
SF-295 CNS = test system: SF-295 CNS
NCI-H522 lung = test system: NCI-H522 lung
RPMI-8226 leukemia = test system: RPMI-8226 leukemia
SK-MEL-5 melanoma = test system: SK-MEL-5 melanoma
HCT-116 colon = test system: HCT-116 colon
SK-MEL-28 melanoma = test system: SK-MEL-28 melanoma
SF-268 CNS = test system: SF-268 CNS
SW-620 colon = test system: SW-620 colon
PC-3 prostate = test system: PC-3 prostate
RXF 393 renal = test system: RXF 393 renal
OVCAR-5 ovarian = test system: OVCAR-5 ovarian
IGROV1 ovarian = test system: IGROV1 ovarian
SR leukemia = test system: SR leukemia
KM12 colon = test system: KM12 colon

CC(=O)N1CCC(Nc2ncc3cc(Oc4ccc(F)cc4F)c(=O)n(C)c3n2)CC1
> 25 µM: TGI (DU-145 prostate) | TGI (NCI-H460 lung) | TGI (HL-60(TB) leukemia) | TGI (UACC-62 melanoma) | TGI (K-562 leukemia) | TGI (T-47D breast) | TGI (SNB-75 CNS) | TGI (A498 renal) | TGI (TK-10 renal) | TGI (CAKI-1 renal) | TGI (SN12C renal) | TGI (UO-31 renal) | TGI (OVCAR-3 ovarian) | TGI (UACC-257 melanoma) | TGI (NCI-H23 lung) | TGI (MOLT-4 leukemia) | TGI (SNB-19 CNS) | TGI (A549 NSCLC) | TGI (M14 melanoma) | TGI (HOP-62 NSCLC) | TGI (OVCAR-8 ovarian) | TGI (BT-549 breast) | TGI (HCC-2998 colon) | TGI (ACHN renal) | TGI (HCT-15 colon) | TGI (SF-539 CNS) | TGI (MALME-3M melanoma) | TGI (HT29 colon) | TGI (NCI/ADR-RES ovarian) | TGI (CCRF-CEM leukemia) | TGI (MDA-MB-435) | TGI (SK-MEL-2 melanoma) | TGI (NCI-H226 lung) | TGI (SK-OV-3 ovarian) | TGI (HOP-92 NSCLC) | TGI (MDA-MB-231 breast) | TGI (OVCAR-4 ovarian) | TGI (786-0 renal) | TGI (HS 578T breast) | TGI (U251 CNS) | TGI (LOX IMVI melanoma) | TGI (COLO 205 colon) | TGI (MCF7 breast) | TGI (SF-295 CNS) | TGI (NCI-H522 lung) | TGI (RPMI-8226 leukemia) | TGI (SK-MEL-5 melanoma) | TGI (HCT-116 colon) | TGI (SK-MEL-28 melanoma) | TGI (SF-268 CNS) | TGI (SW-620 colon) | TGI (PC-3 prostate) | TGI (RXF 393 renal) | TGI (OVCAR-5 ovarian) | TGI (IGROV1 ovarian) | TGI (SR leukemia) | TGI (KM12 colon)
inactive: GI50 (DU-145 prostate) > 25 µM | GI50 (NCI-H460 lung) > 25 µM | GI50 (HL-60(TB) leukemia) > 25 µM | GI50 (UACC-62 melanoma) > 25 µM | GI50 (K-562 leukemia) > 25 µM | GI50 (T-47D breast) > 25 µM | GI50 (SNB-75 CNS) > 22 µM | GI50 (A498 renal) 9.26 µM | GI50 (TK-10 renal) > 25 µM | GI50 (CAKI-1 renal) > 25 µM | GI50 (SN12C renal) > 25 µM | GI50 (UO-31 renal) > 17.7 µM | GI50 (OVCAR-3 ovarian) > 25 µM | GI50 (UACC-257 melanoma) > 25 µM | GI50 (NCI-H23 lung) > 25 µM | GI50 (MOLT-4 leukemia) > 25 µM | GI50 (SNB-19 CNS) > 25 µM | GI50 (A549 NSCLC) > 25 µM | GI50 (M14 melanoma) > 25 µM | GI50 (HOP-62 NSCLC) > 25 µM | GI50 (OVCAR-8 ovarian) > 25 µM | GI50 (BT-549 breast) > 25 µM | GI50 (HCC-2998 colon) > 25 µM | GI50 (ACHN renal) > 25 µM | GI50 (HCT-15 colon) > 25 µM | GI50 (SF-539 CNS) > 25 µM | GI50 (MALME-3M melanoma) > 25 µM | GI50 (HT29 colon) > 25 µM | GI50 (NCI/ADR-RES ovarian) > 25 µM | GI50 (CCRF-CEM leukemia) > 25 µM | GI50 (MDA-MB-435) > 25 µM | GI50 (SK-MEL-2 melanoma) > 25 µM | GI50 (NCI-H226 lung) > 25 µM | GI50 (SK-OV-3 ovarian) > 25 µM | GI50 (HOP-92 NSCLC) 2.45 µM | GI50 (MDA-MB-231 breast) > 25 µM | GI50 (OVCAR-4 ovarian) > 18.8 µM | GI50 (786-0 renal) > 25 µM | GI50 (HS 578T breast) 8.69 µM | GI50 (U251 CNS) > 25 µM | GI50 (LOX IMVI melanoma) > 25 µM | GI50 (COLO 205 colon) > 25 µM | GI50 (MCF7 breast) > 25 µM | GI50 (SF-295 CNS) > 25 µM | GI50 (NCI-H522 lung) > 25 µM | GI50 (RPMI-8226 leukemia) > 25 µM | GI50 (SK-MEL-5 melanoma) > 25 µM | GI50 (HCT-116 colon) > 25 µM | GI50 (SK-MEL-28 melanoma) > 25 µM | GI50 (SF-268 CNS) > 25 µM | GI50 (SW-620 colon) > 25 µM | GI50 (PC-3 prostate) > 25 µM | GI50 (RXF 393 renal) > 16.9 µM | GI50 (OVCAR-5 ovarian) > 25 µM | GI50 (IGROV1 ovarian) > 25 µM | GI50 (SR leukemia) > 25 µM | GI50 (KM12 colon) > 25 µM
